# Assay results as given in EP0351685A2, “Process for preparing n15-alkyl derivatives of teicoplanin compounds” (GRUPPO LEPETIT S.p.A., priority 1988, dated 1990).
# Legend:
# Assay in all cases: In vitro antibacterial activity (MIC), standard agar-dilution test
# Format in all cases: cell-based
# [1] = system: P. vulgaris X19H ATCC 881; details: Proteus vulgaris, ATCC881, inoculum about 10⁴ CFU/ml, 18-24 h at 37°C
# [2] = system: P. aeruginosa ISM; details: Pseudomonas aeruginosa, inoculum about 10⁴ CFU/ml, 18-24 h at 37°C
# [3] = system: E. coli SKF 12140; details: Escherichia coli, SKF12140, inoculum about 10⁴ CFU/ml, 18-24 h at 37°C
# [4] = system: S. faecalis ATCC 7080; details: Enterococcus faecalis, ATCC7080, inoculum about 10⁴ CFU/ml, 18-24 h at 37°C
# Description: (§1) Isosensitest broth (Oxoid) and Todd-Hewitt broth (Difco) are used for growing staphylococci and streptococci, respectively. Broth cultures are diluted so that the final inoculum is about 10⁴ colony forming units/ml (CFU/ml).
# [5] = system: S. pneumoniae UC41; details: Streptococcus pneumoniae, inoculum about 10⁴ CFU/ml, 18-24 h at 37°C
# Description: as §1
# [6] = system: S. pyogenes C203; details: Streptococcus pyogenes, inoculum about 10⁴ CFU/ml, 18-24 h at 37°C
# Description: as §1
# [7] = system: S. haemolyticus L 602; details: Staphylococcus haemolyticus, L602, inoculum about 10⁴ CFU/ml, 18-24 h at 37°C
# Description: as §1
# [8] = system: S. epidermidis ATCC 12228; details: Staphylococcus epidermidis, ATCC12228, inoculum about 10⁴ CFU/ml, 18-24 h at 37°C
# Description: as §1
# [9] = system: S. aureus Tour; details: Staphylococcus aureus, inoculum about 10⁴ CFU/ml, 18-24 h at 37°C
# Description: as §1
# [10] = S. aureus Tour + 30% bovine serum
MIC [1],MIC [2],MIC [3],MIC [4],MIC [5],MIC [6],MIC [8],"MIC [9, 10]",MIC ([9]; S. aureus Tour),SMILES,MIC [7]
> 128 mg/L,> 128 mg/L,> 128 mg/L,0.12 mg/L,0.12 mg/L,0.06 mg/L,0.03 mg/L,0.25 mg/L,0.06 mg/L,CCNC1C(=O)NC2Cc3ccc(c(Cl)c3)Oc3cc4cc(c3O)Oc3ccc(cc3Cl)C(O)C3NC(=O)C(NC(=O)C4NC(=O)C(NC2=O)c2cc(O)cc(c2)Oc2cc1ccc2O)c1ccc(O)c(c1)-c1c(O)cc(O)cc1C(C(=O)O)NC3=O (stereo not shown) [Compound 9],0.25 mg/L
> 128 mg/L,> 128 mg/L,> 128 mg/L,0.25 mg/L,0.06 mg/L,0.12 mg/L,0.03 mg/L,0.5 mg/L,0.06 mg/L,O=C1NC2C(=O)NC3C(=O)NC4C(=O)NC(C(=O)NC(C(=O)O)c5cc(O)cc(O)c5-c5cc4ccc5O)C(O)c4ccc(c(Cl)c4)Oc4cc3cc(c4O)Oc3ccc(cc3Cl)CC1NC(=O)C(NC1CCCC1)c1ccc(O)c(c1)Oc1cc(O)cc2c1 (stereo not shown) [Compound 11],
